Test results: ChEMBL document CHEMBL4765227, “Hit to lead optimization of a series of N-[4-(1,3-benzothiazol-2-yl)phenyl]acetamides as monoacylglycerol lipase inhibitors with potential anticancer activity” (Eur J Med Chem, 2016)

Key:
Assay type in all cases: functional
Settings in all cases: read-out: GI
SF-268 = assay: Growth inhibition of human SF-268 cells at 10 uM incubated for 48 hrs by sulforhodamine B assay relative to control
SNB-19 = assay: Growth inhibition of human SNB-19 cells at 10 uM incubated for 48 hrs by sulforhodamine B assay relative to control
HOP-92 = assay: Growth inhibition of human HOP-92 cells at 10 uM incubated for 48 hrs by sulforhodamine B assay relative to control
TK-10 = assay: Growth inhibition of human TK-10 cells at 10 uM incubated for 48 hrs by sulforhodamine B assay relative to control
HCT-116 = assay: Growth inhibition of human HCT-116 cells at 10 uM incubated for 48 hrs by sulforhodamine B assay relative to control
Hs-578T = assay: Growth inhibition of human Hs-578T cells at 10 uM incubated for 48 hrs by sulforhodamine B assay relative to control
UACC-62 = assay: Growth inhibition of human UACC-62 cells at 10 uM incubated for 48 hrs by sulforhodamine B assay relative to control
RXF 393 = assay: Growth inhibition of human RXF 393 cells at 10 uM incubated for 48 hrs by sulforhodamine B assay relative to control
MDA-MB-435 = assay: Growth inhibition of human MDA-MB-435 cells at 10 uM incubated for 48 hrs by sulforhodamine B assay relative to control
DU-145 = assay: Growth inhibition of human DU-145 cells at 10 uM incubated for 48 hrs by sulforhodamine B assay relative to control
MDA-MB-231 = assay: Growth inhibition of human MDA-MB-231 cells at 10 uM incubated for 48 hrs by sulforhodamine B assay relative to control
HT-29 = assay: Growth inhibition of human HT-29 cells at 10 uM incubated for 48 hrs by sulforhodamine B assay relative to control
NCI-H23 = assay: Growth inhibition of human NCI-H23 cells at 10 uM incubated for 48 hrs by sulforhodamine B assay relative to control
SK-MEL-5 = assay: Growth inhibition of human SK-MEL-5 cells at 10 uM incubated for 48 hrs by sulforhodamine B assay relative to control
OVCAR-3 = assay: Growth inhibition of human OVCAR-3 cells at 10 uM incubated for 48 hrs by sulforhodamine B assay relative to control
SF-539 = assay: Growth inhibition of human SF-539 cells at 10 uM incubated for 48 hrs by sulforhodamine B assay relative to control
HCT-15 = assay: Growth inhibition of human HCT-15 cells at 10 uM incubated for 48 hrs by sulforhodamine B assay relative to control
OVCAR-4 = assay: Growth inhibition of human OVCAR-4 cells at 10 uM incubated for 48 hrs by sulforhodamine B assay relative to control
IGROV-1 = assay: Growth inhibition of human IGROV-1 cells at 10 uM incubated for 48 hrs by sulforhodamine B assay relative to control
UO-31 = assay: Growth inhibition of human UO-31 cells at 10 uM incubated for 48 hrs by sulforhodamine B assay relative to control
MOLT-4 = assay: Growth inhibition of human MOLT-4 cells at 10 uM incubated for 48 hrs by sulforhodamine B assay relative to control
HCC 2998 = assay: Growth inhibition of human HCC 2998 cells at 10 uM incubated for 48 hrs by sulforhodamine B assay relative to control
NCI/ADR-RES = assay: Growth inhibition of human NCI/ADR-RES cells at 10 uM incubated for 48 hrs by sulforhodamine B assay relative to control
MDA-MB-468 = assay: Growth inhibition of human MDA-MB-468 cells at 10 uM incubated for 48 hrs by sulforhodamine B assay relative to control
M14 = assay: Growth inhibition of human M14 cells at 10 uM incubated for 48 hrs by sulforhodamine B assay relative to control
NCI-H226 = assay: Growth inhibition of human NCI-H226 cells at 10 uM incubated for 48 hrs by sulforhodamine B assay relative to control
CCRF-CEM = assay: Growth inhibition of human CCRF-CEM cells at 10 uM incubated for 48 hrs by sulforhodamine B assay relative to control
K562 = assay: Growth inhibition of human K562 cells at 10 uM incubated for 48 hrs by sulforhodamine B assay relative to control
Malme-3M = assay: Growth inhibition of human Malme-3M cells at 10 uM incubated for 48 hrs by sulforhodamine B assay relative to control
LOX IMVI = assay: Growth inhibition of human LOX IMVI cells at 10 uM incubated for 48 hrs by sulforhodamine B assay relative to control
SN12C = assay: Growth inhibition of human SN12C cells at 10 uM incubated for 48 hrs by sulforhodamine B assay relative to control
SK-MEL-28 = assay: Growth inhibition of human SK-MEL-28 cells at 10 uM incubated for 48 hrs by sulforhodamine B assay relative to control
KM12 = assay: Growth inhibition of human KM12 cells at 10 uM incubated for 48 hrs by sulforhodamine B assay relative to control
MCF7 = assay: Growth inhibition of human MCF7 cells at 10 uM incubated for 48 hrs by sulforhodamine B assay relative to control
COLO 205 = assay: Growth inhibition of human COLO 205 cells at 10 uM incubated for 48 hrs by sulforhodamine B assay relative to control
UACC-257 = assay: Growth inhibition of human UACC-257 cells at 10 uM incubated for 48 hrs by sulforhodamine B assay relative to control
SNB-75 = assay: Growth inhibition of human SNB-75 cells at 10 uM incubated for 48 hrs by sulforhodamine B assay relative to control
NCI-H522 = assay: Growth inhibition of human NCI-H522 cells at 10 uM incubated for 48 hrs by sulforhodamine B assay relative to control
SF-295 = assay: Growth inhibition of human SF-295 cells at 10 uM incubated for 48 hrs by sulforhodamine B assay relative to control
HL-60(TB) = assay: Growth inhibition of human HL-60(TB) cells at 10 uM incubated for 48 hrs by sulforhodamine B assay relative to control
OVCAR-8 = assay: Growth inhibition of human OVCAR-8 cells at 10 uM incubated for 48 hrs by sulforhodamine B assay relative to control
PC-3 = assay: Growth inhibition of human PC-3 cells at 10 uM incubated for 48 hrs by sulforhodamine B assay relative to control
BT-549 = assay: Growth inhibition of human BT-549 cells at 10 uM incubated for 48 hrs by sulforhodamine B assay relative to control
OVCAR-5 = assay: Growth inhibition of human OVCAR-5 cells at 10 uM incubated for 48 hrs by sulforhodamine B assay relative to control

CN1CCN(CC(=O)Nc2ccc(-c3nc4ccccc4s3)cc2)CC1
inhibition of growth at 10 µM (SF-268): 17%
inhibition of growth at 10 µM (SNB-19): 10.3%
inhibition of growth at 10 µM (HOP-92): 64.3%
inhibition of growth at 10 µM (TK-10): 5.2%
inhibition of growth at 10 µM (HCT-116): 29.1%
inhibition of growth at 10 µM (Hs-578T): 6.34%
inhibition of growth at 10 µM (UACC-62): 136%
inhibition of growth at 10 µM (RXF 393): 45.7%
inhibition of growth at 10 µM (MDA-MB-435): 74.6%
inhibition of growth at 10 µM (DU-145): 14.8%
inhibition of growth at 10 µM (MDA-MB-231): 40.2%
inhibition of growth at 10 µM (HT-29): 60.4%
inhibition of growth at 10 µM (NCI-H23): 17.8%
inhibition of growth at 10 µM (SK-MEL-5): 26.3%
inhibition of growth at 10 µM (OVCAR-3): 0.78%
inhibition of growth at 10 µM (SF-539): 132%
inhibition of growth at 10 µM (HCT-15): 47.1%
inhibition of growth at 10 µM (OVCAR-4): 12.7%
inhibition of growth at 10 µM (IGROV-1): 19.4%
inhibition of growth at 10 µM (UO-31): 42.5%
inhibition of growth at 10 µM (MOLT-4): 22%
inhibition of growth at 10 µM (HCC 2998): 22.7%
inhibition of growth at 10 µM (NCI/ADR-RES): 14.4%
inhibition of growth at 10 µM (MDA-MB-468): 111%
inhibition of growth at 10 µM (M14): 32.4%
inhibition of growth at 10 µM (NCI-H226): 3.83%
inhibition of growth at 10 µM (CCRF-CEM): 36.3%
inhibition of growth at 10 µM (K562): 58.2%
inhibition of growth at 10 µM (Malme-3M): 1.71%
inhibition of growth at 10 µM (LOX IMVI): 134%
inhibition of growth at 10 µM (SN12C): 22.3%
inhibition of growth at 10 µM (SK-MEL-28): 66.2%
inhibition of growth at 10 µM (KM12): 14.4%
inhibition of growth at 10 µM (MCF7): 63.2%
inhibition of growth at 10 µM (COLO 205): 60.3%
inhibition of growth at 10 µM (UACC-257): -5.35%
inhibition of growth at 10 µM (SNB-75): 26.9%
inhibition of growth at 10 µM (NCI-H522): 41.1%
inhibition of growth at 10 µM (SF-295): 8.86%
inhibition of growth at 10 µM (HL-60(TB)): 3.63%
inhibition of growth at 10 µM (OVCAR-8): 8.74%
inhibition of growth at 10 µM (PC-3): 16.4%
inhibition of growth at 10 µM (BT-549): 19.4%
inhibition of growth at 10 µM (OVCAR-5): 27.1%
